# Measurements: patent US5525626A (priority 1989, dated 1996)
# pIC50: −log10 of the molar value.
# Experiments:
# Experiment in all cases: 3H-thymidine assay
# Assay type in all cases: cell-based
# HCV cells = system: HCV cells
# G-361 melanoma cells = settings: Homo sapiens, G-361
# [1] = system: Tp 483 MG glioblastoma cells
# [2] = system: Tp 410 N neuroblastoma cells; settings: Homo sapiens, Neuroblastoma cell
# [3] = system: MCF-7 breast cancer cells; settings: Homo sapiens, MCF7
# Method: (§1) The cell lines were cultivated as indicated in Example 1.
# (§2) The antiproliferative effect of the 1,2-benzopyrone derivatives according to the invention on the tumor cell lines in each case was shown with the help of the ^3 H-thymidine insertion and with reference to growth curves.
# (§3) In a 24-well-plate, in each case 10^4 cells of the line to be investigated were inoculated per well. Approximately 48 hours later the cells were half-confluent; the medium was then changed and replaced by a medium containing the active substance in question (cf Table 3). After a further 48 hours 0.25 μCi ^3 H-thymidine (Ammersham) was added to each well and the cells were incubated for a further 24 hours. Subsequently the cultures were washed twice with ice-cold PBS and the high-molecular-weight ^3 H-radioactivity was precipitated with 5% trichloroacetic acid for one hour at 4° C. After the washing of the cells in PBS the ^3 H-radioactivity was solubilized with 0.3M NaOH and measured in the counter. The growth-inhibition was determined by comparing the thymidine insertion of the cells treated with active substance with untreated cells.
# (§4) The active substance concentration in each case was so chosen that ^3 H-thymidine insertion was 50% inhibited. The active substance concentrations used under this aspect for the active substances and cell lines in each case are given in table 4 below in μM/ml, […]
# CAKI-1 cells = settings: Homo sapiens, CAKI-1
# Method: as §1, §2, §3, §4
# K-562 leukemic cells = settings: Homo sapiens, K562
# Method: as §1, §2, §3, §4
# At T 20 = settings: Mus musculus, AtT20
# Method: as §1, §2, §3, §4
# Daudi leukemic cells = settings: Homo sapiens
# [4] = system: Z-R-75-1 breast cancer cells; settings: Homo sapiens, ZR-75-1
# [5] = read-out: 3H-thymidine tracer (%) of control
# [6] = 1 μM/ml, read-out: 3H-thymidine tracer (%) of control
# [7] = 2 μM/ml, read-out: 3H-thymidine tracer (%) of control
# [8] = 4 μM/ml, read-out: 3H-thymidine tracer (%) of control
# [9] = 8 μM/ml, read-out: 3H-thymidine tracer (%) of control
# [10] = 16 μM/ml, read-out: 3H-thymidine tracer (%) of control
# [11] = 25 μM/ml, read-out: 3H-thymidine tracer (%) of control
# [12] = 50 μM/ml, read-out: 3H-thymidine tracer (%) of control
# [13] = 100 μM/ml, read-out: 3H-thymidine tracer (%) of control
# [14] = 250 μM/ml, read-out: 3H-thymidine tracer (%) of control
# [15] = 500 μM/ml, read-out: 3H-thymidine tracer (%) of control
# [16] = Table 4, *: maximum usable dosage, no 50% inhibition, read-out: active substance concentration at which 3H-thymidine insertion was 50% inhibited
# [17] = 1 μM/ml, read-out: 3H-thymidine insertion (%) of control
# [18] = 2 μM/ml, read-out: 3H-thymidine insertion (%) of control
# [19] = 4 μM/ml, read-out: 3H-thymidine insertion (%) of control
# [20] = 8 μM/ml, read-out: 3H-thymidine insertion (%) of control
# [21] = 16 μM/ml, read-out: 3H-thymidine insertion (%) of control
# [22] = 25 μM/ml, read-out: 3H-thymidine insertion (%) of control
# [23] = 50 μM/ml, read-out: 3H-thymidine insertion (%) of control
# [24] = 100 μM/ml, read-out: 3H-thymidine insertion (%) of control
# [25] = 250 μM/ml, read-out: 3H-thymidine insertion (%) of control
# [26] = 500 μM/ml, read-out: 3H-thymidine insertion (%) of control
# [27] = Table 4, read-out: active substance concentration at which 3H-thymidine insertion was 50% inhibited
structure (smiles),measurement,setting,value
"O=c1ccc2cc(O)c(O)cc2o1 [Esculetin, 6,7-hydroxy-1,2-benzopyrone]",activity at 1 µM,HCV cells; [5],99%
same,activity at 2 µM,HCV cells; [5],94%
same,activity at 4 µM,HCV cells; [5],87%
same,activity at 8 µM,HCV cells; [5],83%
same,activity at 16 µM,HCV cells; [5],78%
same,activity at 25 µM,HCV cells; [5],76%
same,activity at 50 µM,HCV cells; [5],71%
same,activity at 250 µM,HCV cells; [5],64%
same,activity at 500 µM,HCV cells; [5],62%
same,pIC50,HCV cells; read-out: active substance concentration at which 3H-thymidine insertion was 50% inhibited,< 3.30
same,activity at 1 µM,G-361 melanoma cells; [6],97%
same,activity at 2 µM,G-361 melanoma cells; [7],93%
same,activity at 4 µM,G-361 melanoma cells; [8],90%
same,activity at 8 µM,G-361 melanoma cells; [9],88%
same,activity at 16 µM,G-361 melanoma cells; [10],72%
same,activity at 25 µM,G-361 melanoma cells; [11],68%
same,activity at 50 µM,G-361 melanoma cells; [12],60%
same,activity at 100 µM,G-361 melanoma cells; [13],58%
same,activity at 250 µM,G-361 melanoma cells; [14],52%
same,activity at 500 µM,G-361 melanoma cells; [15],49%
same,pIC50,G-361 melanoma cells; [16],3.30
same,activity at 1 µM,[1]; [17],98%
same,activity at 2 µM,[1]; [18],94%
same,activity at 4 µM,[1]; [19],85%
same,activity at 8 µM,[1]; [20],77%
same,activity at 16 µM,[1]; [21],73%
same,activity at 25 µM,[1]; [22],69%
same,activity at 50 µM,[1]; [23],62%
same,activity at 100 µM,[1]; [24],55%
same,activity at 250 µM,[1]; [25],39%
same,activity at 500 µM,[1]; [26],28%
same,pIC50,[1]; [27],3.82
same,activity at 1 µM,[2]; [17],94%
same,activity at 2 µM,[2]; [18],86%
same,activity at 4 µM,[2]; [19],75%
same,activity at 8 µM,[2]; [20],69%
same,activity at 16 µM,[2]; [21],64%
same,activity at 25 µM,[2]; [22],48%
same,activity at 50 µM,[2]; [23],42%
same,activity at 100 µM,[2]; [24],40%
same,activity at 250 µM,[2]; [25],34%
same,activity at 500 µM,[2]; [26],29%
same,pIC50,[2]; [27],4.60
same,activity at 1 µM,[3]; [6],100%
same,activity at 2 µM,[3]; [7],98%
same,activity at 4 µM,[3]; [8],92%
same,activity at 8 µM,[3]; [9],85%
same,activity at 16 µM,[3]; [10],76%
same,activity at 25 µM,[3]; [11],69%
same,activity at 50 µM,[3]; [12],64%
same,activity at 100 µM,[3]; [13],58%
same,activity at 250 µM,[3]; [14],50%
same,activity at 500 µM,[3]; [15],42%
same,pIC50,[3]; [16],3.60
same,activity at 1 µM,CAKI-1 cells; [6],96%
same,activity at 2 µM,CAKI-1 cells; [7],93%
same,activity at 4 µM,CAKI-1 cells; [8],88%
same,activity at 8 µM,CAKI-1 cells; [9],80%
same,activity at 16 µM,CAKI-1 cells; [10],62%
same,activity at 25 µM,CAKI-1 cells; [11],58%
same,activity at 50 µM,CAKI-1 cells; [12],53%
same,activity at 100 µM,CAKI-1 cells; [13],45%
same,activity at 150 µM,"CAKI-1 cells; 150 μM/ml, read-out: 3H-thymidine tracer (%) of control",40%
same,activity at 500 µM,CAKI-1 cells; [15],32%
same,pIC50,CAKI-1 cells; [16],4.30
same,activity at 1 µM,K-562 leukemic cells; [6],97%
same,activity at 2 µM,K-562 leukemic cells; [7],95%
same,activity at 4 µM,K-562 leukemic cells; [8],84%
same,activity at 8 µM,K-562 leukemic cells; [9],77%
same,activity at 16 µM,K-562 leukemic cells; [10],62%
same,activity at 25 µM,K-562 leukemic cells; [11],58%
same,activity at 50 µM,K-562 leukemic cells; [12],50%
same,activity at 100 µM,K-562 leukemic cells; [13],47%
same,activity at 250 µM,K-562 leukemic cells; [14],44%
same,activity at 500 µM,K-562 leukemic cells; [15],31%
same,pIC50,K-562 leukemic cells; [27],4.30
same,activity at 1 µM,At T 20; [6],93%
same,activity at 2 µM,At T 20; [7],89%
same,activity at 4 µM,At T 20; [8],86%
same,activity at 8 µM,At T 20; [9],75%
same,activity at 16 µM,At T 20; [10],75%
same,activity at 25 µM,At T 20; [11],67%
same,activity at 50 µM,At T 20; [12],62%
same,activity at 100 µM,At T 20; [13],55%
same,activity at 250 µM,At T 20; [14],49%
same,activity at 500 µM,At T 20; [15],44%
same,pIC50,At T 20; [27],3.60
same,activity at 1 µM,Daudi leukemic cells; [6],94%
same,activity at 2 µM,Daudi leukemic cells; [7],96%
same,activity at 4 µM,Daudi leukemic cells; [8],83%
same,activity at 8 µM,Daudi leukemic cells; [9],75%
same,activity at 16 µM,Daudi leukemic cells; [10],69%
same,activity at 25 µM,Daudi leukemic cells; [11],63%
same,activity at 50 µM,Daudi leukemic cells; [12],61%
same,activity at 100 µM,Daudi leukemic cells; [13],57%
same,activity at 250 µM,Daudi leukemic cells; [14],54%
same,activity at 500 µM,Daudi leukemic cells; [15],39%
same,pIC50,Daudi leukemic cells; [27],3.60
same,activity at 1 µM,[4]; [6],98%
same,activity at 2 µM,[4]; [7],96%
same,activity at 4 µM,[4]; [8],89%
same,activity at 8 µM,[4]; [9],84%
same,activity at 16 µM,[4]; [10],77%
same,activity at 25 µM,[4]; [11],70%
same,activity at 50 µM,[4]; [12],61%
same,activity at 100 µM,[4]; [13],53%
same,activity at 250 µM,[4]; [14],46%
same,activity at 500 µM,[4]; [15],39%
same,pIC50,[4]; [16],3.76
